Legend:
[1] = 298.15 K; 101.33 kPa; Liquid; Vibrating tube method
[2] = excess molar enthalpy (molar enthalpy of mixing); xn = mol fraction of the nth substance listed; conditions: 298.15 K, 101.33 kPa, Liquid, Flow calorimetry

CCCCCC [hexane]
Conditions	mass density [kg/m3]
[1]	655.42

CCCCCCCCCC [decane]
Conditions	mass density [kg/m3]
[1]	726.37

C1CCOC1 [tetrahydrofuran]
Conditions	mass density [kg/m3]
[1]	882.09

C1CCOC1 [tetrahydrofuran] + CCCCCC
[2]
Conditions	excess molar enthalpy [kcal/mol]
x1 = 0.05	0.0362
x1 = 0.1	0.0678
x1 = 0.1499	0.0942
x1 = 0.2001	0.118
x1 = 0.25	0.1371
x1 = 0.2998	0.1538
x1 = 0.3503	0.1645
x1 = 0.4003	0.1733
x1 = 0.4504	0.1788
x1 = 0.5005	0.1794
x1 = 0.5508	0.1793
x1 = 0.6003	0.1743
x1 = 0.6503	0.1663
x1 = 0.7002	0.1544
x1 = 0.75	0.1389
x1 = 0.8015	0.119
x1 = 0.8501	0.0947
x1 = 0.8998	0.0693
x1 = 0.9499	0.0365

C1CCOC1 [tetrahydrofuran] + C1CCCCC1
[2]
Conditions	excess molar enthalpy [kcal/mol]
x1 = 0.05	0.0385
x1 = 0.1	0.0709
x1 = 0.15	0.0988
x1 = 0.2001	0.121
x1 = 0.2499	0.1399
x1 = 0.2997	0.1529
x1 = 0.35	0.1636
x1 = 0.4003	0.1707
x1 = 0.4504	0.174
x1 = 0.4999	0.1745
x1 = 0.5498	0.1722
x1 = 0.6	0.1663
x1 = 0.65	0.1569
x1 = 0.7003	0.1444
x1 = 0.7498	0.1264
x1 = 0.8	0.108
x1 = 0.8505	0.0858
x1 = 0.9003	0.0599
x1 = 0.95	0.0309

C1CCCCC1 [cyclohexane]
Conditions	mass density [kg/m3]
[1]	773.92

C1CCOC1 [tetrahydrofuran] + CCCCCCCCCC
[2]
Conditions	excess molar enthalpy [kcal/mol]
x1 = 0.05	0.0371
x1 = 0.0999	0.0724
x1 = 0.15	0.104
x1 = 0.2	0.1308
x1 = 0.2503	0.1543
x1 = 0.3	0.1748
x1 = 0.3498	0.1922
x1 = 0.4002	0.2066
x1 = 0.4509	0.2141
x1 = 0.4999	0.2201
x1 = 0.5499	0.2222
x1 = 0.6002	0.2203
x1 = 0.6501	0.2133
x1 = 0.7003	0.2016
x1 = 0.7502	0.185
x1 = 0.8003	0.1621
x1 = 0.8502	0.134
x1 = 0.9011	0.098
x1 = 0.95	0.0545

Reference: the NIST ThermoML archive (doi:10.1021/je020159m)
